In the kinase profiling compilation of Christmann-Franck et al. (2016):
Values joined by “and” are separate entries in the source; they are usually repeats but may differ in a detail not shown here. Equal values may be shown once.

Columns and labels:
Experiment in all cases: radiometric filter-binding kinase assay, Kinase HotSpot
Settings in all cases: compound 0.5 µM; ATP 10 µM
[1] = target: PRKD3 (human) (UniProt O94806)
[2] = target: TBK1 (human) (UniProt Q9UHD2)
[3] = target: IRAK4 (human) (UniProt Q9NWZ3)
[4] = target: MST4 (human) (UniProt Q9P289)
[5] = target: PRKG1 (human) (UniProt Q13976)
Sequence of PRKG1 (human) (Q13976 whole entry, looked up): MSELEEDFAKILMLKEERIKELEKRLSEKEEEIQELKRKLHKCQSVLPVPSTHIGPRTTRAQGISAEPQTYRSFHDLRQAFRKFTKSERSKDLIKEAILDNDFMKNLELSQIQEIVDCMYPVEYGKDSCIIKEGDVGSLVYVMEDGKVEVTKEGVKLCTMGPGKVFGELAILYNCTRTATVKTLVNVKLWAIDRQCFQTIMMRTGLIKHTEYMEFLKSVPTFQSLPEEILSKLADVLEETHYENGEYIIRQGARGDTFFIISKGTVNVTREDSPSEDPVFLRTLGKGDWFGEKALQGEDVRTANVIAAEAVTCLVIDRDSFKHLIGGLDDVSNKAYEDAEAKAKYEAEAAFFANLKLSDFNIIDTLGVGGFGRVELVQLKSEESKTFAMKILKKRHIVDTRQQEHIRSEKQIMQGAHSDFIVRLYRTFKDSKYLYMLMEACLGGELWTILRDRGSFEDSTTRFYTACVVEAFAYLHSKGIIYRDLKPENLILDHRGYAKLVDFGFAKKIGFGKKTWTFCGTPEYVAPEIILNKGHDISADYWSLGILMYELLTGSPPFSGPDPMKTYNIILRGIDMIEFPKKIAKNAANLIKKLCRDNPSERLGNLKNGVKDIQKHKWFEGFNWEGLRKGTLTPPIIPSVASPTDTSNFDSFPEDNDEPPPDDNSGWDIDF

[6] = target: DDR2 (human) (UniProt Q16832)
[7] = target: MARK2 (human) (UniProt Q7KZI7)
Sequence of MARK2 (human) (Q7KZI7 whole entry, looked up): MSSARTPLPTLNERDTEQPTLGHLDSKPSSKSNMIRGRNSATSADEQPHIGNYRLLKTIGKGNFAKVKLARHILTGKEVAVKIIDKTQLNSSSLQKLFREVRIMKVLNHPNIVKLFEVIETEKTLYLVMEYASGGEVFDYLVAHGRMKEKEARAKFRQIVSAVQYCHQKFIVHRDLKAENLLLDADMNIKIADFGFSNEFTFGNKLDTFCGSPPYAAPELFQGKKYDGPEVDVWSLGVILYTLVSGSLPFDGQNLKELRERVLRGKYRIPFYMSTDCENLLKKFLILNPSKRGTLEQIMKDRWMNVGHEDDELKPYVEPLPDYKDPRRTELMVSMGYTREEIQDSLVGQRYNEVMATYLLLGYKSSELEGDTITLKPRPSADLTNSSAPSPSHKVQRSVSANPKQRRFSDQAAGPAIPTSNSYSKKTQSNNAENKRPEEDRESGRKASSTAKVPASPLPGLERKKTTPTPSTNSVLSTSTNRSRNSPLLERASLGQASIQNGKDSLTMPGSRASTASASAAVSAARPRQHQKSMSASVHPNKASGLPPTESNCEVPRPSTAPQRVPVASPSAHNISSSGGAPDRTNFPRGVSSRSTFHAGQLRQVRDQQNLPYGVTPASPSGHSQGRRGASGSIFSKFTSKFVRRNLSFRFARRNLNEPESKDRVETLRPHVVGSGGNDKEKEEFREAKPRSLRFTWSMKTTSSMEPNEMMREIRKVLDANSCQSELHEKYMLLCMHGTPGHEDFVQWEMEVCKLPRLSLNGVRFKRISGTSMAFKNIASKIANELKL

[8] = target: SGK2 (human) (UniProt Q9HBY8)
Sequence of SGK2 (human) (Q9HBY8 whole entry, looked up): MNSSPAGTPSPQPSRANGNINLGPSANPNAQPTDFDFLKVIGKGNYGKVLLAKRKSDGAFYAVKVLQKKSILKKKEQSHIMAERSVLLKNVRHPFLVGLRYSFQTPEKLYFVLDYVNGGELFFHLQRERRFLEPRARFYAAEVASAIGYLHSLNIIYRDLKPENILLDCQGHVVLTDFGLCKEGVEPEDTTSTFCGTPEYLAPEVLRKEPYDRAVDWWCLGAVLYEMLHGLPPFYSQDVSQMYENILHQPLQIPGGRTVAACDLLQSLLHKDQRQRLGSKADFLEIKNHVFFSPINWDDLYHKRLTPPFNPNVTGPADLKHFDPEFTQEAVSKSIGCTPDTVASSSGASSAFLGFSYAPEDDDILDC

[9] = target: ACVRL1 (human) (UniProt P37023)
[10] = target: STK10 (human) (UniProt O94804)
[11] = target: STK17A (human) (UniProt Q9UEE5)
[12] = target: RIPK2 (human) (UniProt O43353)
Sequence of RIPK2 (human) (O43353 whole entry, looked up): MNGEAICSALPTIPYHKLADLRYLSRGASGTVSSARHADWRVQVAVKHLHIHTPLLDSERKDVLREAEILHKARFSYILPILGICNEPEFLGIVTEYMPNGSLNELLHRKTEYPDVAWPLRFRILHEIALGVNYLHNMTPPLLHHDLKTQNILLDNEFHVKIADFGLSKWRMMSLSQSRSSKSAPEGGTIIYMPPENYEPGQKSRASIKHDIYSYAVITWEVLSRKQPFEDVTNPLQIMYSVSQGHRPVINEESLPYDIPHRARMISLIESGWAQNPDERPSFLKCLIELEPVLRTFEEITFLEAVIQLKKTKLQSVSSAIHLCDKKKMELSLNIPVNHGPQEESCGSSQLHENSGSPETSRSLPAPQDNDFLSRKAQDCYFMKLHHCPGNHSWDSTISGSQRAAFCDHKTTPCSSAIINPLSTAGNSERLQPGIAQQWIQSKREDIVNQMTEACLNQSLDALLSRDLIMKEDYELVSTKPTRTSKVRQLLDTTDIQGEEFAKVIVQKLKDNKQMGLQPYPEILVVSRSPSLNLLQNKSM

[13] = target: ABL1 (human) (UniProt P00519)
Sequence of ABL1 (human) (P00519 whole entry, looked up): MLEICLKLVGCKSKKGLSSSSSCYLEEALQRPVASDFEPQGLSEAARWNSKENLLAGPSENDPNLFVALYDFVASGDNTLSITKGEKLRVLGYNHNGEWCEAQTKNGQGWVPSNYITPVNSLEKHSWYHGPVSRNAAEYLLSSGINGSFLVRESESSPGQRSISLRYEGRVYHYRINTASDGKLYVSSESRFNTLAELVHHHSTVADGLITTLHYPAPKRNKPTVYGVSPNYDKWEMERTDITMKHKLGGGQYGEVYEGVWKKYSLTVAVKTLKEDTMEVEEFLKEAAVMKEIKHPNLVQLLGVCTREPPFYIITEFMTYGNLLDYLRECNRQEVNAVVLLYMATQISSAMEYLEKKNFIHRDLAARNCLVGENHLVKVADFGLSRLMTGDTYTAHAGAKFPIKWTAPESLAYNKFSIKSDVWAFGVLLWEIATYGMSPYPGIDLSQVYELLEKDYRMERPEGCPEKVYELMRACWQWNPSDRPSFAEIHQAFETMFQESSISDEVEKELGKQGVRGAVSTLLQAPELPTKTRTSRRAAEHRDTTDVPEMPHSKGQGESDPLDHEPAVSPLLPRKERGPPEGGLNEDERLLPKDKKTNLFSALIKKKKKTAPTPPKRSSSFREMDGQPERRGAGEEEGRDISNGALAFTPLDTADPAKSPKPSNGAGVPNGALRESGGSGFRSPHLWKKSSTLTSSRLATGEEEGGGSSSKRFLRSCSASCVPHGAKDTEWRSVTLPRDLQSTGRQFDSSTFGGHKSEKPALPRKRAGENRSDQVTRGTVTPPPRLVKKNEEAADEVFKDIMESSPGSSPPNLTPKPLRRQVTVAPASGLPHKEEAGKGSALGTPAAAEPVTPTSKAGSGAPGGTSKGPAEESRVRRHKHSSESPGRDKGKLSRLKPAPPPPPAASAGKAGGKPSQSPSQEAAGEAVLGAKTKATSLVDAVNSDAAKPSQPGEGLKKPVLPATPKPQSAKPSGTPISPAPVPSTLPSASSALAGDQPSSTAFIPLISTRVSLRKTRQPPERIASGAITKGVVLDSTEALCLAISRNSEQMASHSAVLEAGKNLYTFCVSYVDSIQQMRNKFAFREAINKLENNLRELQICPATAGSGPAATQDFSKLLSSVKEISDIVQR

[14] = target: STK4 (human) (UniProt Q13043)
Sequence of STK4 (human) (Q13043 whole entry, looked up): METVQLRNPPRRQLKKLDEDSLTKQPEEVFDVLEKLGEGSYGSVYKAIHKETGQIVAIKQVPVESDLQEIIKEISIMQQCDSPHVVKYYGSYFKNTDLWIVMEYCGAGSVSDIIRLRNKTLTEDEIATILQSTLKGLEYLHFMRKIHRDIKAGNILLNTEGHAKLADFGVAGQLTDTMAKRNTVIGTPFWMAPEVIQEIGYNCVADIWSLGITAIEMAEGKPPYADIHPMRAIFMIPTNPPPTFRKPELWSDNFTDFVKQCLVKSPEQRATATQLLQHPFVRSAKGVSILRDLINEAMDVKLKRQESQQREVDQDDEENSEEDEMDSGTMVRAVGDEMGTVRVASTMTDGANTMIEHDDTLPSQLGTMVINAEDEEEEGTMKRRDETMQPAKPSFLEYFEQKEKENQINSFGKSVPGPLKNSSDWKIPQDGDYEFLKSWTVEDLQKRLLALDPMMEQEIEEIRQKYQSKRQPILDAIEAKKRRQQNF

[15] = target: DAPK1 (human) (UniProt P53355)
[16] = target: JAK2 JH1 JH2 (human) (UniProt O60674)
[17] = target: MYLK (human) (UniProt Q15746)
[18] = target: CSNK2A1 (human) (UniProt P68400)
[19] = target: CSF1R (human) (UniProt P07333)
[20] = target: RAF1 (human) (UniProt P04049)
[21] = target: EPHA1 (human) (UniProt P21709)
[22] = target: CDK9 CCNK (human) (UniProt O75909+P50750)
[23] = target: CSNK1D (human) (UniProt P48730)
[24] = target: TAOK1 (human) (UniProt Q7L7X3)
[25] = target: FLT1 (human) (UniProt P17948)
[26] = target: GRK7 (human) (UniProt Q8WTQ7)
Sequence of GRK7 (human) (Q8WTQ7 whole entry, looked up): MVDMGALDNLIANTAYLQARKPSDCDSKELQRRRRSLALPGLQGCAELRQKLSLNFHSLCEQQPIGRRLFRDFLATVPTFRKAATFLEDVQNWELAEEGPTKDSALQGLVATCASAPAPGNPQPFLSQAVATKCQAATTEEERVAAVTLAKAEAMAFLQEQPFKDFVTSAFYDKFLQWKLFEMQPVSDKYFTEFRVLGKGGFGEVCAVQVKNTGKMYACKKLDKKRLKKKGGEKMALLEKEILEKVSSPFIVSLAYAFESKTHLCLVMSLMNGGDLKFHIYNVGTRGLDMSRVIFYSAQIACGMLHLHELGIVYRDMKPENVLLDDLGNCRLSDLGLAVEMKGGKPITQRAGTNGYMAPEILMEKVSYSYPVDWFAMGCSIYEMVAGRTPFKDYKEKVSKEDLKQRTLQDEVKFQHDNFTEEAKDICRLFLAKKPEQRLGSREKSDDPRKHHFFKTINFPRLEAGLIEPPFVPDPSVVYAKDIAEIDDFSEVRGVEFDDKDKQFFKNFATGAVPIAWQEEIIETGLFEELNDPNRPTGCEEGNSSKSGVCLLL

[27] = target: SRPK2 (human) (UniProt P78362)
[28] = target: RPS6KB2 (human) (UniProt Q9UBS0)
[29] = target: HIPK2 (human) (UniProt Q9H2X6)
[30] = target: PRKCA (human) (UniProt P17252)
[31] = target: TXK (human) (UniProt P42681)
[32] = target: ROS1 (human) (UniProt P08922)
[33] = target: PHKG2 (human) (UniProt P15735)
[34] = target: DYRK1B (human) (UniProt Q9Y463)
[35] = target: JAK3 JH1 JH2 (human) (UniProt P52333)
[36] = target: NEK7 (human) (UniProt Q8TDX7)
[37] = target: CDC42BPB (human) (UniProt Q9Y5S2)
[38] = target: PLK1 (human) (UniProt P53350)
[39] = target: AURKC (human) (UniProt Q9UQB9)
[40] = target: CAMK2G (human) (UniProt Q13555)
[41] = target: DYRK2 (human) (UniProt Q92630)
[42] = target: LYN (human) (UniProt P07948)
Sequence of LYN (human) (P07948 whole entry, looked up): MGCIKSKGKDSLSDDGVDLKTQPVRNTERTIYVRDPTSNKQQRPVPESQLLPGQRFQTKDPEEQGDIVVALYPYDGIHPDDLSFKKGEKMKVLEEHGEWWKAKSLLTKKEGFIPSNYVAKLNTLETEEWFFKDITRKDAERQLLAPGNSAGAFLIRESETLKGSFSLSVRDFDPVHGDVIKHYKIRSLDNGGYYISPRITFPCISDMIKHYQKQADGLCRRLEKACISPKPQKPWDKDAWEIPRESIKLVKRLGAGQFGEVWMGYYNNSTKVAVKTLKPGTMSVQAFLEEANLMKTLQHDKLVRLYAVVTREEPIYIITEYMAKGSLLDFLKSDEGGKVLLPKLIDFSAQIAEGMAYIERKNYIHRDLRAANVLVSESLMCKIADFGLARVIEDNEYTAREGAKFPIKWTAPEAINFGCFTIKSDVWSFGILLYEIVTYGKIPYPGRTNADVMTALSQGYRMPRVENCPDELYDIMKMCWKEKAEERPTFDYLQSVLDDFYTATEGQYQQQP

**Q.** What does the source list for CN(C)C[C@H]1CCn2c(c(C3=C(c4cn(C)c5ccccc45)C(=O)NC3=O)c3ccccc32)C1?
**A.** residual activity [1]: 93.6%; residual activity [2]: 91.4%; residual activity [3]: 107%; residual activity [4]: 78%; residual activity [5]: 81% and 88.8%; residual activity [6]: 96%; residual activity [7]: 94.9%; residual activity [8]: 71.7%; residual activity [9]: 98.5%; residual activity [10]: 26.6%; residual activity [11]: 87.6%; residual activity [12]: 94.4%; residual activity [13]: 98%; residual activity [14]: 80.1%; residual activity [15]: 94.1%; residual activity [16]: 98.6%; residual activity [17]: 84%; residual activity [18]: 98.9%; residual activity [19]: 98.1%; residual activity [20]: 96.6%; residual activity [21]: 100%; residual activity [22]: 43.5%; residual activity [23]: 101%; residual activity [24]: 93%; residual activity [25]: 91.3%; residual activity [26]: 40%; residual activity [27]: 91.5%; residual activity [28]: 67.6%; residual activity [29]: 94.1%; residual activity [30]: 2.58%; residual activity [31]: 103%; residual activity [32]: 87.1%; residual activity [33]: 104%; residual activity [34]: 92.2%; residual activity [35]: 89.4%; residual activity [36]: 100%; residual activity [37]: 103%; residual activity [38]: 102%; residual activity [39]: 93.1%; residual activity [40]: 100%; residual activity [41]: 102%; residual activity [42]: 100% and 98.3%

**Q.** For Oc1ccc(Nc2nc(-c3ccc(Cl)cc3)cs2)cc1, which residual activity [1] is on record?
**A.** 97.7%

**Q.** What about the residual activity [2] of the same compound?
**A.** 95.2%

**Q.** What about the residual activity [3] of the same compound?
**A.** 111%

**Q.** And the residual activity [4]?
**A.** 105%

**Q.** What about the residual activity [5] of the same compound?
**A.** 94.1% and 98.5%

**Q.** What about the residual activity [6] of the same compound?
**A.** 94.1%

**Q.** What about the residual activity [7] of the same compound?
**A.** 102%

**Q.** What about the residual activity [8] of the same compound?
**A.** 108%

**Q.** What about the residual activity [9] of the same compound?
**A.** 103%

**Q.** And the residual activity [10]?
**A.** 96.6%

**Q.** And the residual activity [11]?
**A.** 98.7%

**Q.** What about the residual activity [12] of the same compound?
**A.** 96.4%

**Q.** And the residual activity [13]?
**A.** 99.7%

**Q.** What about the residual activity [14] of the same compound?
**A.** 106%

**Q.** And the residual activity [15]?
**A.** 101%

**Q.** What about the residual activity [16] of the same compound?
**A.** 101%

**Q.** And the residual activity [17]?
**A.** 104%

**Q.** What about the residual activity [18] of the same compound?
**A.** 101%

**Q.** What about the residual activity [19] of the same compound?
**A.** 104%

**Q.** What about the residual activity [20] of the same compound?
**A.** 95.7%

**Q.** And the residual activity [21]?
**A.** 92.6%

**Q.** What about the residual activity [22] of the same compound?
**A.** 102%

**Q.** And the residual activity [23]?
**A.** 105%

**Q.** And the residual activity [24]?
**A.** 97.1%

**Q.** What about the residual activity [25] of the same compound?
**A.** 82.3%

**Q.** And the residual activity [26]?
**A.** 109%

**Q.** What about the residual activity [27] of the same compound?
**A.** 104%

**Q.** And the residual activity [28]?
**A.** 99.8%

**Q.** What about the residual activity [29] of the same compound?
**A.** 90.9%

**Q.** And the residual activity [30]?
**A.** 113%

**Q.** And the residual activity [31]?
**A.** 100%

**Q.** And the residual activity [32]?
**A.** 96.9%

**Q.** What about the residual activity [33] of the same compound?
**A.** 99.9%

**Q.** And the residual activity [34]?
**A.** 106%

**Q.** What about the residual activity [35] of the same compound?
**A.** 92.2%

**Q.** And the residual activity [36]?
**A.** 106%

**Q.** And the residual activity [37]?
**A.** 108%

**Q.** And the residual activity [38]?
**A.** 106%

**Q.** What about the residual activity [39] of the same compound?
**A.** 97%

**Q.** What about the residual activity [40] of the same compound?
**A.** 90.6%

**Q.** And the residual activity [41]?
**A.** 91.2%

**Q.** And the residual activity [42]?
**A.** 100%
